Tests used:
Type in all cases: cell-based
60 cell line panel = test: NCI 60 cell line screen (SRB), whole panel; details: panel summary
Experimental: The screening assay is performed on 96-well microtitre plates. Relatively high initial inoculation densities are used, in order to permit measurement of “time-zero” values and to enhance the screen's ability to detect and provide some differentiation between antiproliferative and cytotoxic response parameters. […] The inoculated microtitre plates are pre-incubated for 24 hours at 37θC prior to drug additions. The five drug dilutions tested routinely range from 10^−4 to 10^−8 molar. Higher or lower concentration ranges may be selected on a nonroutine basis if appropriate solubility and/or prior biological information or other screening data so dictate. Duplicate wells are prepared for all concentrations, (concentration is often denoted by placing brackets around a number); “time-zero” and “no drug” controls are also provided for each test. The minimum amount of compound required for a one-time evaluation in the routine screen can be calculated from the knowledge that each test requires a total of approximately 40 ml (0.04 liter) of cell culture medium containing the highest desired drug concentration. Thus, the amount (grams) of sample required (assuming an upper test concentration limit of 10^−4 M) is: molecular weight of compound×[…]. After a 48 hour incubation (37θC) with the test compound, the cells are fixed in situ to the bottoms of the microtitre wells by addition of 50 ul of either 50% trichloroacetic acid (for adherent cell lines) or 80% trichloroacetic acid (for settled cell suspension lines), followed by incubation for 60 minutes at 4θC. The cellular protein in each well is assayed using a sulforhodamine B (SRB) stain procedure. Briefly, after discarding the supernatants, the microtitre plates are washed 5 times with deionized water and air-dried. One hundred microliters of SRB solution (0.4% w/v in 1% acetic acid) is added to each microtitre well and incubated for 10 minutes at room temperature. Unbound SRB is removed by washing 5 times with 1 % acetic acid. The plates are air-dried, the bound stain is solubilized with Tris buffer, and the optical densities read at 515 nm. SRB is a bright pink anionic dye which, in dilute acetic acid, binds electrostatically to the basic amino acids of TCA-fixed cells. Cryopreserved master stocks of all the lines are maintained, and cultures used for screening are replaced from the master stock after no more than twenty passages in the screening laboratory. The cell line panel consists of 60 lines, organized into nine, disease-related subpanels including leukemia, non-small-cell lung cancer, colon, CNS, melanoma, ovarian, renal, prostate and breast cancers.
The response parameters G150 and LC50 are interpolated values representing the concentrations at which the percentage growth (PG) is +50 and −50, respectively:
GI50 is the concentration for which the PG=+50. At this value the increase from time tzero, in the number or mass of cells in the test well is only 50% as much as the corresponding increase in the control well during this period of the experiment, see Table II. A drug effect of this intensity is interpreted as primary growth inhibition.
TGI is the concentration for which PG=0. At this value the number or mass of cells in the well at the end of the experiment equals the number or mass of cells in the well at time tzero, see Table III. A drug effect of this intensity is regarded as cytostasis.
LC50 is the concentration for which the PG=−50. At this value, the number or mass of cells in the test well at the end of the experiment is half that at time tzero, see Table IV. This is interpreted as cytotoxicity.

SNB-19 = test: NCI 60 cell line screen (SRB), CNS Cancer; details: PG=0
786-0 = test: NCI 60 cell line screen (SRB), Renal Cancer
IGROVI = test: NCI 60 cell line screen (SRB), Ovarian Cancer
ACHN = test: NCI 60 cell line screen (SRB), Renal Cancer; details: PG=0
NCI-H522 = test: NCI 60 cell line screen (SRB), Non-Small Cell Lung Cancer
HT29 = test: NCI 60 cell line screen (SRB), Colon Cancer
HCT-15 = test: NCI 60 cell line screen (SRB), Colon Cancer; details: PG=0
MALME-3M = test: NCI 60 cell line screen (SRB), Melanoma
RXF 393 = test: NCI 60 cell line screen (SRB), Renal Cancer
NCI-H322M = test: NCI 60 cell line screen (SRB), Non-Small Cell Lung Cancer
OVCAR-5 = test: NCI 60 cell line screen (SRB), Ovarian Cancer
SN12C = test: NCI 60 cell line screen (SRB), Renal Cancer
OVCAR-8 = test: NCI 60 cell line screen (SRB), Ovarian Cancer
HOP-62 = test: NCI 60 cell line screen (SRB), Non-Small Cell Lung Cancer

In the case of `C[C@@H]1CC[C@H]2[C@@H](C)C(=O)O[C@@H]3O[C@]4(C)CC[C@@H]1[C@]32OO4` [Artemisinin, artemisinin], the “Delta of Log10GI50 (Table IV)” value (60 cell line panel; Table IV (LC50)) is reported as −4.00, the “Range of Log10GI50 (Table IV)” value (60 cell line panel; Table IV (LC50)) is reported as 0.00 and the “Delta of Log10GI50” value (60 cell line panel) is reported as −4.07. The “Delta of Log10TGI” value (60 cell line panel) was −4.00, the “Range of Log10GI50” value (60 cell line panel) was 0.73 and the “Range of Log10TGI” value (60 cell line panel) was 0.06. It also gave a Log10TGI (SNB-19) greater than −4.00 log10M, a Log10TGI (786-0; PG=0) greater than −4.00 log10M and a Log10GI50 (786-0; PG=+50) greater than −4.00 log10M. For the same compound, the Log10GI50 (786-0; Table IV (LC50, PG=−50)) was greater than −4.00 log10M, the Log10TGI (IGROVI; PG=0) was greater than −4.00 log10M and the Log10GI50 (IGROVI; PG=+50) was −4.31 log10M. For the same compound, the Log10GI50 (IGROVI; Table IV (LC50, PG=−50)) was greater than −4.00 log10M, the Log10TGI (ACHN) was greater than −4.00 log10M and the Log10TGI (NCI-H522; PG=0) was greater than −4.00 log10M. For the same compound, the Log10GI50 (NCI-H522; PG=+50) was greater than −4.00 log10M, the Log10GI50 (NCI-H522; Table IV (LC50, PG=−50)) was greater than −4.00 log10M and the Log10TGI (HT29; PG=0) was greater than −4.00 log10M. It also gave a Log10GI50 (HT29; PG=+50) greater than −4.00 log10M, a Log10GI50 (HT29; Table IV (LC50, PG=−50)) greater than −4.00 log10M and a Log10TGI (HCT-15) greater than −4.00 log10M. It also gave a Log10TGI (MALME-3M; PG=0) of −4.06 log10M, a Log10GI50 (MALME-3M; Table IV (LC50, PG=−50)) greater than −4.00 log10M and a Log10TGI (RXF 393; PG=0) greater than −4.00 log10M. The Log10GI50 (RXF 393; PG=+50) was −4.08 log10M, the Log10GI50 (RXF 393; Table IV (LC50, PG=−50)) was greater than −4.00 log10M and the Log10TGI (NCI-H322M; PG=0) was greater than −4.00 log10M. For the same compound, the Log10GI50 (NCI-H322M; PG=+50) was greater than −4.00 log10M, the Log10TGI (OVCAR-5; PG=0) was greater than −4.00 log10M and the Log10GI50 (OVCAR-5; PG=+50) was greater than −4.00 log10M. The Log10GI50 (OVCAR-5; Table IV (LC50, PG=−50)) was greater than −4.00 log10M, the Log10TGI (SN12C; SN12C, PG=0) was greater than −4.00 log10M and the Log10GI50 (SN12C; SNI2C, PG=+50) was −4.21 log10M. It also gave a Log10GI50 (SN12C; Table IV (LC50, PG=−50), SN12C) greater than −4.00 log10M, a Log10TGI (OVCAR-8; PG=0) greater than −4.00 log10M and a Log10GI50 (OVCAR-8; PG=+50) greater than −4.00 log10M. For the same compound, the Log10GI50 (OVCAR-8; Table IV (LC50, PG=−50)) was greater than −4.00 log10M, the Log10TGI (HOP-62; PG=0) was greater than −4.00 log10M and the Log10GI50 (HOP-62; PG=+50) was greater than −4.00 log10M. The Log10GI50 (HOP-62; Table IV (LC50, PG=−50)) was greater than −4.00 log10M.
